# Columns and labels:
# CMV polymerase = target: T1, CMV polymerase (Human cytomegalovirus, UniProt P08546); experiment: HCMV polymerase assay, scintillation proximity assay (SPA), modified version; assay type: biochemical; conditions: modified HCMV polymerase SPA assay: compounds diluted in 100% DMSO, 4.5 mM DTT in polymerase buffer, different lot of CMV polymerase; read-out: CMV polymerase IC50
# T1 construct: made in house; host or cells: recombinant baculovirus-infected SF-9 cells
# Protocol: The HCMV polymerase assay is performed using a scintillation proximity assay (SPA) as described in several references, such as N. D. Cook, et al., Pharmaceutical Manufacturing International, pages 49-53 (1992); K. Takeuchi, Laboratory Practice, September issue (1992); U.S. Pat. No. 4,568,649 (1986); which are incorporated by reference herein. Reactions are performed in 96-well plates. The assay is conducted in 100 μl volume with 5.4 mM HEPES (pH 7.5), 11.7 mM KCl, 4.5 mM MgCl2, 0.36 mg/ml BSA, and 90 nM ^3H-dTTP. Assays are run with and without CHAPS, (3-[(3-Cholamidopropyl)-dimethylammonio]-1-propane-sulfonate) at a final concentration of 2 mM. HCMV polymerase is diluted in enzyme dilution buffer containing 50% glycerol, 250 mM NaCl, 10 mM HEPES (pH 7.5), 100 μg/ml BSA, and 0.01% sodium azide. The HCMV polymerase, which is expressed in recombinant baculovirus-infected SF-9 cells and purified according to literature procedures, is added at 10% (or 10 μl) of the final reaction volume, i.e., 100 μl. Compounds are diluted in 50% DMSO and 10 μl are added to each well. Control wells contain an equivalent concentration of DMSO. Unless noted otherwise, reactions are initiated via the addition of 6 nM biotinylated poly(dA)-oligo(dT) template/primer to reaction mixtures containing the enzyme, substrate, and compounds of interest. Plates are incubated in a 25 C. or 37 C. H2O bath and terminated via the addition of 40 μl/reaction of 0.5 M EDTA (pH 8) per well. Reactions are terminated within the time-frame during which substrate incorporation is linear and varied depending upon the enzyme and conditions used, i.e., 30 min. for HCMV polymerase. Ten μl of streptavidin-SPA beads (20 mg/ml in PBS/10% glycerol) are added following termination of the reaction. Plates are incubated 10 min. at 37 C., then equilibrated to room temperature, and counted on a Packard Topcount. Linear regressions are performed and IC50's are calculated using computer software.
# A modified version of the above HCMV polymerase assay is performed as described above, but with the following changes: Compounds are diluted in 100% DMSO until final dilution into assay buffer. In the previous assay, compounds are diluted in 50% DMSO. 4.5 mM dithiotherotol (DTT) is added to the polymerase buffer.
# T1 sequence (P08546 whole entry): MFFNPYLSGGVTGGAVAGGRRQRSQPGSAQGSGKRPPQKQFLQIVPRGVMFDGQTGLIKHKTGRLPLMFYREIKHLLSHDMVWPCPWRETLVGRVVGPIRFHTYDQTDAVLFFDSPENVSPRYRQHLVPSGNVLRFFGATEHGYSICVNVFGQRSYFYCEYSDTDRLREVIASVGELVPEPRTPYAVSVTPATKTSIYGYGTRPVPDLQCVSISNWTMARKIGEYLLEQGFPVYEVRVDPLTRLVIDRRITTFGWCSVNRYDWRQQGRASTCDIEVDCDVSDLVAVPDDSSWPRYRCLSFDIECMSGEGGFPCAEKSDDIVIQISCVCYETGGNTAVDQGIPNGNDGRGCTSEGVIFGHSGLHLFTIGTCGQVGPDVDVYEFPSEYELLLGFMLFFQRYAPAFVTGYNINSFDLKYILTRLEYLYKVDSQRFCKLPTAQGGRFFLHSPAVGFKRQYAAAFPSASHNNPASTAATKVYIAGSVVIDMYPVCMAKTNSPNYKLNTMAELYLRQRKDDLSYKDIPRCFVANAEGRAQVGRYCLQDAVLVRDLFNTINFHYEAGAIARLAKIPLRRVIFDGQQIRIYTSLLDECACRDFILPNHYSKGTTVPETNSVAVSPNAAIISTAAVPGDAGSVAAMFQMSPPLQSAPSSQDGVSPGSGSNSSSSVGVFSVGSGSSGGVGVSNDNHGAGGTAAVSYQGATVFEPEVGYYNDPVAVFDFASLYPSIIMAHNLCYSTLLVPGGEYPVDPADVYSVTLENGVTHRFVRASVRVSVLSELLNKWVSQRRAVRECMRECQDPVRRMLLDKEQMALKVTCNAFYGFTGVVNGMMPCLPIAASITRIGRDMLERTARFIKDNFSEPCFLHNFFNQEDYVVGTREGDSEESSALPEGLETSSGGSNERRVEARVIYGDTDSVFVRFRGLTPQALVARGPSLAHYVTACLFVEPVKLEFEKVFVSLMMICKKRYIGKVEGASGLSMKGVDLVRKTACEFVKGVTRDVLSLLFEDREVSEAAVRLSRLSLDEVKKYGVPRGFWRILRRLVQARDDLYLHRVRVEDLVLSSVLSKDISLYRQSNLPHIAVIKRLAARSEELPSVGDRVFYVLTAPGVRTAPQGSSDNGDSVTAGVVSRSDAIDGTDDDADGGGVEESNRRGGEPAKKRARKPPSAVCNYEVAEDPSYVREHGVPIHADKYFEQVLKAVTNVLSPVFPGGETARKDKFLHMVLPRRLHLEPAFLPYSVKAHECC
IC50 (CMV polymerase),melting point,SMILES
760 nM,178 to 180 °C,"O=C(NCc1ccc(Cl)cc1)c1cn2c3c(cc(CN4CCOCC4)cc3c1=O)OC(CN1CCOCC1)C2 (stereo not shown) [Example 2, N-(4-Chlorobenzyl)-2,9-bis(4-morpholinylmethyl)-7-oxo-2,3-dihydro-7H-[1,4]oxazino[2,3,4-ij]quinoline-6-carboxamide]"
760 nM,168 to 170 °C,"CN(C)CC1Cn2cc(C(=O)NCc3ccc(Cl)cc3)c(=O)c3cc(CN4CCOCC4)cc(c32)O1 (stereo not shown) [Example 3, N-(4-Chlorobenzyl)-2-[(dimethylamino)methyl]-9-(4-morpholinylmethyl)-7-oxo-2,3-dihydro-7H-[1,4]oxazino[2,3,4-ij]quinoline-6-carboxamide]"
1300 nM,201 to 208 °C (dec.),"CN1CCN(CC2Cn3cc(C(=O)NCc4ccc(Cl)cc4)c(=O)c4cc(CN5CCOCC5)cc(c43)O2)CC1 (stereo not shown) [Example 4, N-(4-Chlorobenzyl)-2-[(4-methyl-1-piperazinyl)methyl]-9-(4-morpholinylmethyl)-7-oxo-2,3-dihydro-7H-[1,4]oxazino[2,3,4-ij]quinoline-6-carboxamide]"
1100 nM,209.5 to 212 °C,"O=C(NCc1ccc(Cl)cc1)c1cn2c3c(cc(CN4CCOCC4)cc3c1=O)OC(CN1CCCC1)C2 (stereo not shown) [Example 5, N-(4-Chlorobenzyl)-9-(4-morpholinylmethyl)-7-oxo-2-(1-pyrrolidinylmethyl)-2,3-dihydro-7H-[1,4]oxazino[2,3,4-ij]quinoline-6-carboxamide]"
1500 nM,213 to 215 °C,"O=C(NCc1ccc(Cl)cc1)c1cn2c3c(cc(CN4CCOCC4)cc3c1=O)OC(CN1CCCCC1)C2 (stereo not shown) [Example 8, N-(4-Chlorobenzyl)-9-(4-morpholinylmethyl)-7-oxo-2-(1-piperidinylmethyl)-2,3-dihydro-7H-[1,4]oxazino[2,3,4-ij]quinoline-6-carboxamide]"
590 nM,164 to 167 °C,"O=C(NCc1ccc(Cl)cc1)c1cn2c3c(cc(CN4CCOCC4)cc3c1=O)OC(CNCc1ccncc1)C2 (stereo not shown) [Example 12, N-(4-Chlorobenzyl)-9-(4-morpholinylmethyl)-7-oxo-2-{[(4-pyridinylmethyl)amino]methyl}-2,3-dihydro-7H-[1,4]oxazino[2,3,4-ij]quinoline-6-carboxamide]"
590 nM,217 to 219 °C (dec.),"O=C(NCc1ccc(Cl)cc1)c1cn2c3c(cc(CN4CCOCC4)cc3c1=O)OC(Cn1ccnc1)C2 (stereo not shown) [Example 13, N-(4-Chlorobenzyl)-2-(1H-imidazol-1-ylmethyl)-9-(4-morpholinylmethyl)-7-oxo-2,3-dihydro-7H-[1,4]oxazino[2,3,4-ij]quinoline-6-carboxamide]"
550 nM,190 to 191 °C,"CSCC1Cn2cc(C(=O)NCc3ccc(Cl)cc3)c(=O)c3cc(CN4CCOCC4)cc(c32)O1 (stereo not shown) [Example 14, N-(4-Chlorobenzyl)-2-[(methylsulfanyl)methyl]-9-(4-morpholinylmethyl)-7-oxo-2,3-dihydro-7H-[1,4]oxazino[2,3,4-ij]quinoline-6-carboxamide]"
420 nM,198 to 201 °C,"CC(C)(C)SCC1Cn2cc(C(=O)NCc3ccc(Cl)cc3)c(=O)c3cc(CN4CCOCC4)cc(c32)O1 (stereo not shown) [Example 15, 2-[(tert-Butylsulfanyl)methyl]-N-(4-chlorobenzyl)-9-(4-morpholinylmethyl)-7-oxo-2,3-dihydro-7H-[1,4]oxazino[2,3,4-ij]quinoline-6-carboxamide]"
580 nM,182.5 to 183 °C,"COC(=O)CSCC1Cn2cc(C(=O)NCc3ccc(Cl)cc3)c(=O)c3cc(CN4CCOCC4)cc(c32)O1 (stereo not shown) [Example 18, Methyl ({[6-{[(4-chlorobenzyl)amino]carbonyl}-9-(4-morpholinylmethyl)-7-oxo-2,3-dihydro-7H-[1,4]oxazino[2,3,4-ij]quinolin-2-yl]methyl}sulfanyl)acetate]"
740 nM,215 to 218 °C,"CC(=O)OCC1Cn2cc(C(=O)NCc3ccc(Cl)cc3)c(=O)c3cc(CN4CCOCC4)cc(c32)O1 (stereo not shown) [Example 24, [6-{[(4-Chlorobenzyl)amino]carbonyl}-9-(4-morpholinylmethyl)-7-oxo-2,3-dihydro-7H-[1,4]oxazino[2,3,4-ij]quinolin-2-yl]methyl acetate]"
600 nM,213.5 to 216.5 °C,"O=C(NCc1ccc(Cl)cc1)c1cn2c3c(cc(CN4CCOCC4)cc3c1=O)OC(F)(F)C2 [Example 28, N-(4-Chlorobenzyl)-2,2-difluoro-9-(4-morpholinylmethyl)-7-oxo-2,3-dihydro-7H-[1,4]oxazino[2,3,4-ij]quinoline-6-carboxamide]"
480 nM,,"O=C(NCc1ccc(Cl)cc1)c1cn2c3c(cc(CN4CCOCC4)cc3c1=O)OC(c1cccnc1)C2 (stereo not shown) [Example 34, N-(4-Chlorobenzyl)-9-(4-morpholinylmethyl)-7-oxo-2-(3-pyridinyl)-2,3-dihydro-7H-[1,4]oxazino[2,3,4-ij]quinoline-6-carboxamide]"
610 nM,,"O=C(NCc1ccc(Cl)cc1)c1cn2c3c(cc(CN4CCOCC4)cc3c1=O)OC(c1ccncc1)C2 (stereo not shown) [Example 35, N-(4-Chlorobenzyl)-9-(4-morpholinylmethyl)-7-oxo-2-(4-pyridinyl)-2,3-dihydro-7H-[1,4]oxazino[2,3,4-ij]quinoline-6-carboxamide]"
420 nM,,"N#Cc1cccc(C2Cn3cc(C(=O)NCc4ccc(Cl)cc4)c(=O)c4cc(CN5CCOCC5)cc(c43)O2)c1 (stereo not shown) [Example 36, N-(4-Chlorobenzyl)-2-(3-cyanophenyl)-9-(morpholin-4-ylmethyl)-7-oxo-2,3-dihydro-7H-[1,4]oxazino[2,3,4-ij]quinoline-6-carboxamide]"
380 nM,193 to 196 °C,"O=C(NCc1ccc(Cl)cc1)c1cn2c3c(cc(CN4CCOCC4)cc3c1=O)OC(c1ccoc1)C2 (stereo not shown) [Example 37, N-(4-Chlorobenzyl)-2-(3-furyl)-9-(morpholin-4-ylmethyl)-7-oxo-2,3-dihydro-7H-[1,4]oxazino[2,3,4-ij]quinoline-6-carboxamide]"
460 nM,,"O=C(NCc1ccc(Cl)cc1)c1cn2c3c(cc(CN4CCOCC4)cc3c1=O)OC(c1cccs1)C2 (stereo not shown) [Example 38, N-(4-Chlorobenzyl)-9-(morpholin-4-ylmethyl)-7-oxo-2-thien-2-yl-2,3-dihydro-7H-[1,4]oxazino[2,3,4-ij]quinoline-6-carboxamide]"
330 nM,234 to 236 °C,"O=C(NCc1ccc(Cl)cc1)c1cn2c3c(cc(CN4CCOCC4)cc3c1=O)OC(c1cc(F)cc(F)c1)C2 (stereo not shown) [Example 39, N-(4-Chlorobenzyl)-2-(3,5-difluorophenyl)-9-(morpholin-4-ylmethyl)-7-oxo-2,3-dihydro-7H-[1,4]oxazino[2,3,4-ij]quinoline-6-carboxamide]"
330 nM,227 to 231 °C,"O=C(NCc1ccc(Cl)cc1)c1cn2c3c(cc(CN4CCOCC4)cc3c1=O)OC(c1ccc3c(c1)OCO3)C2 (stereo not shown) [Example 40, 2-(1,3-Benzodioxol-5-yl)-N-(4-chlorobenzyl)-9-(morpholin-4-ylmethyl)-7-oxo-2,3-dihydro-7H-[1,4]oxazino[2,3,4-ij]quinoline-6-carboxamide]"
660 nM,,"O=C(NCc1ccc(Cl)cc1)c1cn2c3c(cc(CN4CCOCC4)cc3c1=O)OC(CNCc1ccc(Cl)cc1)C2 (stereo not shown) [Example 56, N-(4-Chlorobenzyl)-2-{[(4-chlorobenzyl)amino]methyl}-9-(morpholin-4-ylmethyl)-7-oxo-2,3-dihydro-7H-[1,4]oxazino[2,3,4-ij]quinoline-6-carboxamide]"
1050 nM,,"COCOc1ccccc1C1Cn2cc(C(=O)NCc3ccc(Cl)cc3)c(=O)c3cc(CN4CCOCC4)cc(c32)O1 (stereo not shown) [Example 64, N-(4-Chlorobenzyl)-2-[2-(methoxymethoxy)phenyl]-9-(morpholin-4-ylmethyl)-7-oxo-2,3-dihydro-7H-[1,4]oxazino[2,3,4-ij]quinoline-6-carboxamide]"
820 nM,,"O=C(NCc1ccc(Cl)cc1)c1cn2c3c(cc(CN4CCOCC4)cc3c1=O)OC(c1ccccc1O)C2 (stereo not shown) [Example 68, N-(4-Chlorobenzyl)-2-(2-hydroxyphenyl)-9-(morpholin-4-ylmethyl)-7-oxo-2,3-dihydro-7H-[1,4]oxazino[2,3,4-ij]quinoline-6-carboxamide]"

# Source: US6673793B2, “Oxazinoquinolones useful for the treatment of viral infections” (Pharmacia & Upjohn Co., priority 2000, dated 2004)
